The values that follow come from patent EP2210881A1, “Derivatives of syringolin A” (Max-Planck-Gesellschaft zur Förderung der Wissenschaften …, priority 2009, dated 2010).

Where two headings read alike, the source gives them in different places.

What all share (type): biochemical
The target of test [1] is T1, human 20S proteasome (Homo sapiens, UniProt P28074).
T1 construct: human erythrocyte 20S proteasomes (AK-740, Biomol); purchased Biomol AK-740; host or cells: human erythrocytes
Kind of test: Proteasome inhibition assay, chymotryptic activity (substrate Suc-LLVY-AMC). The source says: (§1) The Ki' value is defined as the apparent dissociation constant of the inhibitor. The Ki' value can be calculated from the IC50 value using the equation: Ki' = IC50 * Km / (S+Km), wherein S is the concentration of the substrate, and Km is the substrate concentration (in the absence of an inhibitor) at which the velocity of the reaction is half-maximal. The Ki' of an inhibitor for inhibition of a particular substrate (fixed Km) is constant.
As used herein, the term "chymotryptic activity" refers to inhibition of the human 20S proteasome measured by the reduced proteolytic cleavage of the "chymotryptic" proteasome substrate Suc-LLVY-AMC.
(§2) Proteasome inhibition assays were performed with human erythrocyte 20S proteasomes (AK-740, Biomol) at 37 °C in 100 µL reaction volumes containing 2 µg ml^-1 20 proteasome and 100 µM Suc-LLVY-AMC as a substrate. Cleavage efficience in presence of varying inhibitor concentrations were followed by an MWGt Sirius HT plate reader (BIO-TEK instruments) equipped with 360 nm excitation and 460 nm emission filters. The obtained fluorescence values (RFU) were plotted versus time (t). The fluorescence data were fitted by the least squares method using SigmaPlot 10.0 software (Systat Software) to the equation f = f0 + Vst + [(vi - vs)/kobs][1-exp(-kobs*t)], where vi and vs are initial and final velocities, respectively, and kobs is the pseudo-first order associaten rate constant. Ki' values were then determined by plotting vi against inhibitor concentration [I]. Using SigmaPlot, the data were fitted with the hyperbolic equation vi = c + [v0/(Ki' + [I])] where v0 is the velocity of the control.

Test [2] has as its target T2, human 20S proteasome (Homo sapiens, UniProt Q99436).
T2 construct: human erythrocyte 20S proteasomes (AK-740, Biomol); purchased Biomol AK-740; host or cells: human erythrocytes
Put plainly: Proteasome inhibition assay, tryptic activity (substrate Boc-LRR-AMC).
Text: as §1
As used herein, the term "tryptic activity" refers to inhibition of the human 20S proteasome measured by the reduced proteolytic cleavage of the "tryptic" proteasome substrate Boc-LRR-AMC.
as §2
The inhibition of the tryptic proteasome activity was performed in analogy to example 7 with using Boc-LRR-AMC as a substrate instead of Suc-LLVY-AMC.

Test [3] deals with T3, human 20S proteasome (Homo sapiens, UniProt P28072).
T3 construct: human erythrocyte 20S proteasomes (AK-740, Biomol); purchased Biomol AK-740; host or cells: human erythrocytes
Put plainly: Proteasome inhibition assay, caspase-like activity (substrate Z-LLE-AMC).
Text: as §1
As used herein, the term "caspase-like activity" refers to inhibition of the human 20S proteasome measured by the reduced proteolytic cleavage of the "caspase-lie" proteasome substrate Z-LLE-AMC.
as §2
The inhibition of the caspase-like proteasome activity was performed in analogy to example 7 with using Z-LLE-AMC as a substrate instead of Suc-LLVY-AMC.

Turning to `COCCOCCOCCNC(=O)N[C@H](C(=O)N[C@H]1/C=C/CCNC(=O)/C=C/[C@H](C(C)C)NC1=O)C(C)C` [Compound 5, SylA-PEG2], the values for the Ki at human 20S proteasome [1], on human 20S proteasome [2] and at human 20S proteasome [3] were less than 20 nM, 20 to 100 nM and greater than 100 nM, respectively.

`COC(=O)[C@@H](NC(=O)N[C@H](C(=O)N[C@H]1/C=C/CCNC(=O)/C=C/[C@H](C(C)C)NC1=O)C(C)C)C(C)C` [Compound 1, SylA-OCH3]: the Ki was greater than 100 nM at human 20S proteasome [1], greater than 100 nM on human 20S proteasome [2] and greater than 50000 nM on human 20S proteasome [3].

Take `COCCOCCNC(=O)[C@@H](NC(=O)N[C@H](C(=O)N[C@H]1/C=C/CCNC(=O)/C=C/[C@H](C(C)C)NC1=O)C(C)C)C(C)C` [Compound 3, SylA-PEG1]: the Ki was less than 20 nM on human 20S proteasome [1], 20 to 100 nM on human 20S proteasome [2] and greater than 100 nM on human 20S proteasome [3].

As to `CC(C)[C@H](NC(=O)N[C@H](C(=O)N[C@H]1/C=C/CCNC(=O)/C=C/[C@H](C(C)C)NC1=O)C(C)C)C(=O)NCCCCCNC(=O)c1ccc(-c2c3ccc(=[N+](C)C)cc-3oc3cc(N(C)C)ccc23)c(C(=O)[O-])c1` [Compound 2, SylA-Rhodamine], the Ki is greater than 100 nM on human 20S proteasome [1] (read-out: chymotryptic activity [Ki' value in nM], human erythrocyte 20S proteasomes, substrate Suc-LLVY-AMC 100 µM, 37 °C, Ki' = apparent dissociation constant); greater than 100 nM on human 20S proteasome [2] (read-out: tryptic activity [Ki' value in nM], human erythrocyte 20S proteasomes, substrate Boc-LRR-AMC, 37 °C, Ki' = apparent dissociation constant); greater than 50000 nM on human 20S proteasome [3] (read-out: caspase-like activity [Ki' value in nM], human erythrocyte 20S proteasomes, substrate Z-LLE-AMC, 37 °C, Ki' = apparent dissociation constant).

Regarding `CCCCCCCCCCNC(=O)N[C@H](C(=O)N[C@H]1/C=C/CCNC(=O)/C=C/[C@H](C(C)C)NC1=O)C(C)C` [Compound 4, SylA-decanyl], the Ki on human 20S proteasome [1] is less than 20 nM; at human 20S proteasome [2], 20 to 100 nM; on human 20S proteasome [3], greater than 100 nM.
